Experimental data as given in EPA's ToxValDB 9.5 (doi:10.2903/j.efsa.2016.4575).
Values after ≈ are worked out from the molar mass of the structure shown.

How the values were obtained:
Typhlodromus pyri = assay: LR50; higher = less toxic; conditions: not reported; mortality
Tagia sp. = conditions: chronic/long-term; mortality
Bibionidae = conditions: chronic/long-term; duration: 23 days
Canidae = conditions: Dog Other; for NOAEL: oral, hematological
Apis mellifera = conditions: acute, mortality
Coturnix japonica = conditions: acute; oral; M; mortality
Colinus virginianus = conditions: chronic
Bird = conditions: acute; oral; unspecified; mortality
Folsomia candida = conditions: chronic/long-term; reproduction
Daphnia magna = conditions: chronic/long-term; duration: 21 days

Q: How did the LR50 (Typhlodromus pyri) turn out when COc1cc(OC)nc(NC(=O)NS(=O)(=O)c2ncccc2C(F)(F)F)n1 [Flazasulfuron] was run?
A: Its LR50 is > 50 g/ha.

Q: What about the LC50 (Oncorhynchus mykiss; acute, duration: 96 hours, mortality) of the same compound?
A: The LC50 was 22 mg/L (≈ 54 µM).

Q: What about the NOEC (Oncorhynchus mykiss; chronic/long-term, duration: 21 days) of the same compound?
A: The NOEC was 5 mg/L.

Q: What about the NOEC (Tagia sp.) of the same compound?
A: Its NOEC is 8 mg/kg.

Q: And the NOEC (Bibionidae)?
A: Its NOEC is 0.1 mg/L.

Q: And the LD50 (Rattus norvegicus; acute, oral, mortality)?
A: Its LD50 is 1320 mg/kg-day.

Q: And the NOAEL (Rattus norvegicus; chronic, duration: 2 years, other)?
A: The NOAEL was 1.3 mg/kg-day.

Q: And the NOAEL (Rattus norvegicus; reproduction developmental)?
A: Its NOAEL is 11 mg/kg-day.

Q: What about the NOAEL (Rattus norvegicus; reproduction developmental, body weight) of the same compound?
A: The NOAEL was 100 mg/kg-day.

Q: What about the NOAEL (Canidae; chronic, duration: 1 years) of the same compound?
A: Its NOAEL is 2 mg/kg-day.

Q: And the LEC (Canidae; repeat dose other)?
A: Its LEC is 2 mg/kg-day.

Q: And the NOAEL (Canidae; subchronic, duration: 90 days)?
A: The NOAEL was 2 mg/kg-day.

Q: And the LD50 (Apis mellifera; dermal)?
A: Its LD50 is > 25.9 µg/piece.

Q: What about the LD50 (Apis mellifera; oral, unspecified) of the same compound?
A: Its LD50 is > 46.3 µg/piece.

Q: What about the LD50 (Coturnix japonica) of the same compound?
A: The LD50 was 995 mg/kg-day.

Q: What about the NOAEL (Colinus virginianus) of the same compound?
A: The NOAEL was 95.9 mg/kg-day.

Q: What about the LD50 (Bird) of the same compound?
A: Its LD50 is 2120 mg/kg-day.

Q: And the NOEC (Folsomia candida)?
A: The NOEC was 125 mg/kg.

Q: And the NOEC (Daphnia magna)?
A: The NOEC was 6.2 mg/L.
